Results from patent US20080153862A1, “SPIROPIPERIDINE DERIVATIVES” (priority 2006, published 2008).

Biological target: T1, human V1a receptor (Homo sapiens, UniProt P37288)
T1 construct: expressed in transfected cells; host or cells: HEK293 cells, transiently transfected; membrane preparation
Assay: V1a activity: human V1a receptor binding (3H-Vasopressin SPA, HEK293 membranes)
Conditions: membranes of HEK293 cells transiently transfected with human V1a receptor, Ki by Cheng-Prussoff equation, read-out: pKi hV1a (converted)
Method: The human V1a receptor was cloned by RT-PCR from total human liver RNA. The coding sequence was subcloned in an expression vector after sequencing to confirm the identity of the amplified sequence. […] Cell membranes were prepared from HEK293 cells transiently transfected with the expression vector and grown in 20 liter fermenters with the following protocol.
50 g of cells were resuspended in 30 ml freshly prepared ice cold Lysis buffer (50 mM HEPES, 1 mM EDTA, 10 mM MgCl2 adjusted to pH=7.4+complete cocktail of protease inhibitor (Roche Diagnostics)); homogenized with Polytron for 1 min; and sonicated on ice for 2×2 minutes at 80% intensity (Vibracell sonicator). The preparation was centrifuged 20 min at 500 g at 4° C., the pellet was discarded and the supernatant centrifuged 1 hour at 43′000 g at 4° C. (19′000 rpm). The pellet was resuspended in 12.5 ml Lysis buffer+12.5 ml Sucrose 20% and homogenized using a Polytron for 1-2 min. The protein concentration was determined by the Bradford method, and aliquots were stored at −80° C. until use. For binding studies 60 mg Yttrium silicate SPA beads (Amersham) were mixed with an aliquot of membrane in binding buffer (50 mM Tris, 120 mM NaCl, 5 mM KCl, 2 mM CaCl2, 10 mM MgCl2) for 15 minutes with mixing. 50 ul of bead/membrane mixture was then added to each well of a 96 well plate, followed by 50 ul of 4 nM 3H-Vasopressin (American Radiolabeled Chemicals). For total binding measurement 100 ul of binding buffer were added to the respective wells, for non-specific binding 100 ul of 8.4 mM cold vasopressin and for compound testing 100 ul of a serial dilution of each compound in 2% DMSO. The plate was incubated 1 h at room temperature, centrifuged 1 min at 1000 g and counted on a Packard Top-Count. Non-specific binding counts were subtracted from each well and data was normalized to the maximum specific binding set at 100%. To calculate an IC 50 the curve was fitted using a non-linear regression model (XLfit), and the Ki was calculated using the Cheng-Prussoff equation.

T1 sequence (P37288 whole entry): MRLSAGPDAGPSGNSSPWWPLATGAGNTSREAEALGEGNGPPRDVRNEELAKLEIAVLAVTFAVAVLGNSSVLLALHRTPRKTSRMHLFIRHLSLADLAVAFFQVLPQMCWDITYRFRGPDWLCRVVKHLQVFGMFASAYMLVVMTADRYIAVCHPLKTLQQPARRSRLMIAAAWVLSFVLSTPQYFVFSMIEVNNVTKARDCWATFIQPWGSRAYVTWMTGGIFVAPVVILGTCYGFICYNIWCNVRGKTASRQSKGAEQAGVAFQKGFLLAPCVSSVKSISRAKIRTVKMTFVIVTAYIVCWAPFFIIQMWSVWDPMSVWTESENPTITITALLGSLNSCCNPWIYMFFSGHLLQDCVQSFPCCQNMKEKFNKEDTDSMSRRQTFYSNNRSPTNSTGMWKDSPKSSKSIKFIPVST

Ki	SMILES
8.32 nM	COc1ccc2c(c1)C1(CCN(C(=O)c3ccc4ccccc4c3)CC1)OC2=O [Example 1, 6-Methoxy-1′-(2-naphthoyl)-3H-spiro[2-benzofuran-1,4′-piperidin]-3-one]
19.1 nM	O=C1OC2(CCN(C(=O)c3ccc(Cl)c(Cl)c3)CC2)c2ccccc21 [Example 6, 1′-(3,4-Dichlorobenzoyl)-3H-spiro[2-benzofuran-1,4′-piperidin]-3-one]
28.8 nM	COc1ccc2c(c1)C1(CCN(C(=O)c3ccc(Cl)c(Cl)c3)CC1)OC2=O [Example 7, 1′-(3,4-Dichlorobenzoyl)-6-methoxy-3H-spiro[2-benzofuran-1,4′-piperidin]-3-one]
47.9 nM	COc1ccc2c(c1)C(=O)OC21CCN(C(=O)c2ccc(Cl)c(Cl)c2)CC1 [Example 9, 1′-(3,4-Dichlorobenzoyl)-5-methoxy-3H-spiro[2-benzofuran-1,4′-piperidin]-3-one]
29.5 nM	O=C1OC2(CCN(C(=O)c3ccc(Cl)c(Cl)c3)CC2)c2ccc(F)cc21 [Example 11, 1′-(3,4-Dichlorobenzoyl)-5-fluoro-3H-spiro[2-benzofuran-1,4′-piperidin]-3-one]
21.9 nM	O=C1OC2(CCN(C(=O)c3ccc(Cl)c(Cl)c3)CC2)c2cc(OCCO)ccc21 [Example 12, 1′-(3,4-Dichlorobenzoyl)-6-(2-hydroxyethoxy)-3H-spiro[2-benzofuran-1,4′-piperidin]-3-one]
63.1 nM	CC(C)(C)c1ccc(C(=O)N2CCC3(CC2)OCc2ccccc23)cc1 [Example 25, 1′-(4-tert-Butylbenzoyl)-3H-spiro[2-benzofuran-1,4′-piperidine]]
50.1 nM	COc1cc(C(=O)N2CCC3(CC2)OCc2ccccc23)c2[nH]ccc2c1 [Example 27, 1′-[(5-Methoxy-1H-indol-7-yl)carbonyl]-3H-spiro[2-benzofuran-1,4′-piperidine]]
110 nM	O=C(c1ccc2ccccc2c1)N1CCC2(CC1)C(=O)Nc1ccc(Br)cc12 [Example 33, 5-Bromo-1′-(2-naphthoyl)spiro[indole-3,4′-piperidin]-2(1H)-one]
89.1 nM	O=C(c1ccc2ccccc2c1)N1CCC2(C=Cc3ccccc32)CC1 [Example 36, 1′-(2-Naphthoyl)spiro[indene-1,4′-piperidine]]
112 nM	O=C(c1ccc(Cl)c(Cl)c1)N1CCC2(CCc3ccccc32)CC1 [Example 42, 1′-(3,4-Dichlorobenzoyl)-2,3-dihydrospiro[indene-1,4′-piperidine]]
